Reference: ChEMBL document CHEMBL5665443, “Enzyme Inhibitor Single Concentration assay results for EUbOPEN Chemogenomics Library” (2024)

Tests used:
Settings in all cases: Hit No
[1] = molecular target: Methyl-CpG-binding domain protein 4 (Homo sapiens) (UniProt O95243);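 note: MBD4 activity read as fluorescence at 594 nm from cleavage and release of a quenched duplex DNA oligonucleotide, with APE1 coupled to incise the strand and raise turnover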
Description: Inhibition of MBD4 by quantifying inhibition of MBD4-mediated cleavage and dissociation of quenched duplex DNA oligonucleotides, measured as fluorescence at 594 nm. To generate a functional strand incision and increase turn-over this assay is coupled to APE1.

[2] = molecular target: T1, Adenine DNA glycosylase (Homo sapiens) (UniProt Q9UIF7);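 note: human MUTYH activity read as 594 nm fluorescence from cleavage and release of a quenched DNA duplex, coupled with APE1 for strand incision, lower signal meaning inhibition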
T1 sequence (whole entry): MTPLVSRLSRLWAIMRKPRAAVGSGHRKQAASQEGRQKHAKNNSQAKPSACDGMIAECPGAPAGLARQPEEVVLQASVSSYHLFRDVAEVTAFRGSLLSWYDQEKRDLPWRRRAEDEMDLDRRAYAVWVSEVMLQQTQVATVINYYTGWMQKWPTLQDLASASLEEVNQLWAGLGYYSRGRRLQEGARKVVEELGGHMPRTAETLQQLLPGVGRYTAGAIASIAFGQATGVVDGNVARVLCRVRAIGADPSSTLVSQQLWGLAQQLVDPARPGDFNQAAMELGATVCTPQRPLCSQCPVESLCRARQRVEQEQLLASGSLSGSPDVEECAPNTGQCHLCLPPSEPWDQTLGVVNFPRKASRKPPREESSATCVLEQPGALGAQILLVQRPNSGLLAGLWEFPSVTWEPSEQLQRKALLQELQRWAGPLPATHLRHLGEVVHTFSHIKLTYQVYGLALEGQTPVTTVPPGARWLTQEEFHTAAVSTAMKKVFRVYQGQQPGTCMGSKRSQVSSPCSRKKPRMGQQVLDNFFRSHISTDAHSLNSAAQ
Description: Inhibition of MUTYH by quantifying inhibition of MUTYH-mediated cleavage and dissociation of quenched duplex DNA oligonucleotides, measured as fluorescence at 594 nm. To generate a functional strand incision and increase turn-over this assay is coupled to APE1.

[3] = molecular target: Endonuclease 8-like 1 (Homo sapiens) (UniProt Q96FI4);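 note: fluorescence at 594 nm from quenched duplex DNA oligonucleotides released by NEIL1 cleavage and strand separation, reported as reduction of this enzyme activity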
Description: Inhibition of NEIL1 by quantifying inhibition of NEIL1-mediated cleavage and dissociation of quenched duplex DNA oligonucleotides, measured as fluorescence at 594 nm.

[4] = molecular target: T2, Endonuclease 8-like 2 (Homo sapiens) (UniProt Q969S2);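 note: fluorescence at 594 nm reports NEIL2 cutting and release of a quenched double-stranded DNA oligo substrate, reduced signal read as inhibition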
T2 sequence (whole entry): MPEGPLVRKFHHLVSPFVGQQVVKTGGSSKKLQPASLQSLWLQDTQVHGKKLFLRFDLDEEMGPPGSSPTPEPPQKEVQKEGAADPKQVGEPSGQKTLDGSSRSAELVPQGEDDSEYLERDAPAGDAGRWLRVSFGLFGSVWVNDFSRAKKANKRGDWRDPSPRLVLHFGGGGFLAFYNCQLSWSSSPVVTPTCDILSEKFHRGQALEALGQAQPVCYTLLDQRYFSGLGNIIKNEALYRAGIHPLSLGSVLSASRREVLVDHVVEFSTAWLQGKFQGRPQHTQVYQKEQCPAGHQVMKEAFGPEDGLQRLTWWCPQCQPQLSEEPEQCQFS
Description: Inhibition of NEIL2 by quantifying inhibition of NEIL2-mediated cleavage and dissociation of quenched duplex DNA oligonucleotides, measured as fluorescence at 594 nm.

[5] = molecular target: T3, Endonuclease III-like protein 1 (Homo sapiens) (UniProt P78549);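 note: enzyme assay tracking NTHL1 cutting and release of a quenched double-stranded DNA oligo substrate, read as fluorescence at 594 nm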
T3 sequence (whole entry): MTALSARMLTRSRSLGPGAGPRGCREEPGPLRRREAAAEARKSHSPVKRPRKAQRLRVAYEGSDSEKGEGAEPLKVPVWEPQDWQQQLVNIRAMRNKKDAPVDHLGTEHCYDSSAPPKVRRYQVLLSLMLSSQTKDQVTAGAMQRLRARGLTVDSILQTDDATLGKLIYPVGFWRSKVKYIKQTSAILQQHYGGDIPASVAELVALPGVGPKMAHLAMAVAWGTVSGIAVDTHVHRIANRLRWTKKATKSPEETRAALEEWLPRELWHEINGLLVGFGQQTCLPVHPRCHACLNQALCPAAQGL
Description: Inhibition of NTHL1 by quantifying inhibition of NTHL1-mediated cleavage and dissociation of quenched duplex DNA oligonucleotides, measured as fluorescence at 594 nm.

[6] = molecular target: N-glycosylase/DNA lyase (Homo sapiens) (UniProt O15527);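 note: OGG1 cleavage of a quenched duplex DNA oligonucleotide, coupled to APE1 for strand incision, read as fluorescence at 594 nm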
Description: Inhibition of OGG1 by quantifying inhibition of OGG1-mediated cleavage and dissociation of quenched duplex DNA oligonucleotides, measured as fluorescence at 594 nm. To generate a functional strand incision and increase turn-over this assay is coupled to APE1.

[7] = molecular target: T4, Single-strand selective monofunctional uracil DNA glycosylase (Homo sapiens) (UniProt Q53HV7);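 note: enzymatic SMUG1 assay coupled with APE1, reading fluorescence at 594 nm released when a quenched double-stranded DNA oligonucleotide substrate is cleaved and separated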
T4 sequence (whole entry): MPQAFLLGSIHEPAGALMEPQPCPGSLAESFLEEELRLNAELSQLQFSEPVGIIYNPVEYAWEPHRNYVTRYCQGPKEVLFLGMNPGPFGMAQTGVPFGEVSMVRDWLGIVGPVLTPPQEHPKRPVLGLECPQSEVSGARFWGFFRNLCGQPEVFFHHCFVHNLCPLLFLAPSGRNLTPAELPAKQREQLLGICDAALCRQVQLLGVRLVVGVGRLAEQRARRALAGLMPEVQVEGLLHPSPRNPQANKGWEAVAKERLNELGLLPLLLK
Description: Inhibition of SMUG1 by quantifying inhibition of SMUG1-mediated cleavage and dissociation of quenched duplex DNA oligonucleotides, measured as fluorescence at 594 nm. To generate a functional strand incision and increase turn-over this assay is coupled to APE1.

[8] = molecular target: G/T mismatch-specific thymine DNA glycosylase (Homo sapiens) (UniProt Q13569);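 note: human TDG cleavage of quenched duplex DNA oligonucleotides coupled to APE1, strand release read as fluorescence at 594 nm, inhibition of TDG activity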
Description: Inhibition of TDG by quantifying inhibition of TDG-mediated cleavage and dissociation of quenched duplex DNA oligonucleotides, measured as fluorescence at 594 nm. To generate a functional strand incision and increase turn-over this assay is coupled to APE1.

[9] = molecular target: Uracil-DNA glycosylase (Homo sapiens) (UniProt P13051);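 note: UNG excision on a quenched double-stranded DNA oligo probe, with APE1 added for strand incision and turnover, read as fluorescence at 594 nm as strands separate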
Chain of Uracil-DNA glycosylase (Homo sapiens) (P13051 whole entry): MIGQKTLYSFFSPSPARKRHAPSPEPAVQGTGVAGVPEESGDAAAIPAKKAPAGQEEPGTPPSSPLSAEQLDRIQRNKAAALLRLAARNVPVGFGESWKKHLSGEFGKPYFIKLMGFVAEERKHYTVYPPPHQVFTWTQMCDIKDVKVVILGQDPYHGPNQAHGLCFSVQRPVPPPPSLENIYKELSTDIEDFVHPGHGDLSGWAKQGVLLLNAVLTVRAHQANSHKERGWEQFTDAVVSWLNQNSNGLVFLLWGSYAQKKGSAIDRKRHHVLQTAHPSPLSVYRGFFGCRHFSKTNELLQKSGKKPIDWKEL
Description: Inhibition of UNG by quantifying inhibition of UNG-mediated cleavage and dissociation of quenched duplex DNA oligonucleotides, measured as fluorescence at 594 nm. To generate a functional strand incision and increase turn-over this assay is coupled to APE1.

Chain of N-glycosylase/DNA lyase (Homo sapiens) (O15527 whole entry): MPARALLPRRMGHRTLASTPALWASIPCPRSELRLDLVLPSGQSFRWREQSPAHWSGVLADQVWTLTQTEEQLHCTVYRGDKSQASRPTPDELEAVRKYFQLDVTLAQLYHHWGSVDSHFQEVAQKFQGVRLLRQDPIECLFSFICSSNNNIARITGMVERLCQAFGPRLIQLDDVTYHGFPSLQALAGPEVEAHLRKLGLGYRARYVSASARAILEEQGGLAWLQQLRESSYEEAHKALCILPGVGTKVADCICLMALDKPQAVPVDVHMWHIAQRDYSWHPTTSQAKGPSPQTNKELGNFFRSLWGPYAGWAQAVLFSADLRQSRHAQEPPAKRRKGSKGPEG
Chain of G/T mismatch-specific thymine DNA glycosylase (Homo sapiens) (Q13569 whole entry): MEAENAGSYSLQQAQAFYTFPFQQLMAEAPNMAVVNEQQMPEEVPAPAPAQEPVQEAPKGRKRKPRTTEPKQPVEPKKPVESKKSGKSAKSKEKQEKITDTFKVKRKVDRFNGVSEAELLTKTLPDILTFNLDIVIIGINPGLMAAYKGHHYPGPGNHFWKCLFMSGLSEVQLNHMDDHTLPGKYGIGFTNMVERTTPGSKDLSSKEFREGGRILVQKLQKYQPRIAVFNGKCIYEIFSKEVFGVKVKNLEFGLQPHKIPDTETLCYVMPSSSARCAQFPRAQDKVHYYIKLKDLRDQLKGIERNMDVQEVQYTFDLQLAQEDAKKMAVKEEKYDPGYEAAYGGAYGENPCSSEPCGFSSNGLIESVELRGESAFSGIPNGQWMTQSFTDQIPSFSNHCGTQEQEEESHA
Chain of Methyl-CpG-binding domain protein 4 (Homo sapiens) (O95243 whole entry, the tested form may be a part): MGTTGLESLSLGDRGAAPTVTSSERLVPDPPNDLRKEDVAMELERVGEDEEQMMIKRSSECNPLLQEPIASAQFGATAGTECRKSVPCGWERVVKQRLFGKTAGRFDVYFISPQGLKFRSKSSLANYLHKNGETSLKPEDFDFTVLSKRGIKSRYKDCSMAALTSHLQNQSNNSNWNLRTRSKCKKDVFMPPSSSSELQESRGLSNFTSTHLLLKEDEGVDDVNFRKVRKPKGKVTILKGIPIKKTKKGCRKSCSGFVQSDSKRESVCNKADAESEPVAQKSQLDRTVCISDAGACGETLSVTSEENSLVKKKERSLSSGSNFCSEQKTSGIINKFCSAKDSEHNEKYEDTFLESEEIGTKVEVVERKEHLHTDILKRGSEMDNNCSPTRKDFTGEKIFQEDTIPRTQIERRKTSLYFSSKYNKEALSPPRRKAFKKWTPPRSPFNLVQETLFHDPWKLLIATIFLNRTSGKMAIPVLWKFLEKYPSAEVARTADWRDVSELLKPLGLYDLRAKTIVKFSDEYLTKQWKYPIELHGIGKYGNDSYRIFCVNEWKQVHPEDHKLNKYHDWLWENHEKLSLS
Chain of Endonuclease 8-like 1 (Homo sapiens) (Q96FI4 whole entry): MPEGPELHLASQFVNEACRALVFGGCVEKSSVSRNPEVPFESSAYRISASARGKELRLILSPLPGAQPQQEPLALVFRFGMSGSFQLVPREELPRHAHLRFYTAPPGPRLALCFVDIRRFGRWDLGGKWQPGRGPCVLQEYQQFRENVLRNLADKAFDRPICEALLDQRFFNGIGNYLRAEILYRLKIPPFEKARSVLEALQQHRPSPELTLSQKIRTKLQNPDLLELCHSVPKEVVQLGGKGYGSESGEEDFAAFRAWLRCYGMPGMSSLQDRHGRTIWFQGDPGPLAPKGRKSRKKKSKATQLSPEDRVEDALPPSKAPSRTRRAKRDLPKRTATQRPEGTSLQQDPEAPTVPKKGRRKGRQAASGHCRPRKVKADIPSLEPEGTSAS

Row | SMILES | inhibition ([1]; Compound Concentration 10.0 uM) | inhibition ([2]; Compound Concentration 10.0 uM) | inhibition ([3]; Compound Concentration 10.0 uM) | inhibition ([4]; Compound Concentration 10.0 uM) | inhibition ([5]; Compound Concentration 10.0 uM) | inhibition ([6]; Compound Concentration 10.0 uM) | inhibition ([7]; Compound Concentration 10.0 uM) | inhibition ([8]; Compound Concentration 10.0 uM) | inhibition ([9]; Compound Concentration 10.0 uM) | inhibition ([1]; Compound Concentration 1.0 uM) | inhibition ([3]; Compound Concentration 1.0 uM) | inhibition ([5]; Compound Concentration 1.0 uM) | inhibition ([7]; Compound Concentration 1.0 uM) | inhibition ([8]; Compound Concentration 1.0 uM) | inhibition ([9]; Compound Concentration 1.0 uM) | inhibition ([2]; Compound Concentration 1.0 uM) | inhibition ([4]; Compound Concentration 1.0 uM) | inhibition ([6]; Compound Concentration 1.0 uM)
1 | CN(C)c1ncc2cc(-c3ccc(-c4ncccc4F)cc3Cl)c(=O)n(C[C@H]3OC[C@H](N)CO3)c2n1 | -0.894% | 13.7% | 2.65% | 1.58% | -1.31% | -0.214% | 26.9% | 41.3% | 6.12% |  |  |  |  |  |  |  |  | 
2 | COc1ccccc1Nc1nc(-c2nn(Cc3c(F)cc(OCCCO)cc3F)c3ccccc23)ncc1OC | 57% | -2.18% | -6.35% | 3.85% |  | 4.46% | 13% | 97.1% | 2.87% | 54.1% | -4.09% | -4.79% | 10.9% | 39% | 0.477% |  |  | 
3 | COc1nc2ccc([C@@](O)(c3ccc(Cl)cc3)c3cncn3C)cc2c(Cl)c1Cc1ccc(-n2cccn2)cc1 | 64.5% | 6.4% |  | -3.55% | -3.26% | 14.3% | 16.6% | 42.9% | 9.26% |  |  |  |  |  |  |  |  | 
4 | CCOC(=O)N1CCC(CN(Cc2ccc(Cl)cc2)Cc2ccc([N+](=O)[O-])s2)C1 (stereo not given) | 55.4% | -8.96% |  | -4.57% | 7.92% | 16.5% | 16.2% | 97.5% | -1.49% |  |  |  |  |  |  |  |  | 
5 | CCn1c(=O)c(C)cn(Cc2nnc(-c3ccc(F)c(OC)c3F)s2)c1=O | 72.7% | 5.03% |  | -5.85% | -4.57% | 7.36% | 17.9% | 20.6% | 2.54% |  |  |  |  |  |  |  |  | 
6 | CC(=O)Nc1c(C(C)=O)c(=O)n(C)c2nc(-c3ccc(Cl)cc3Cl)c(-c3ccc(Cl)cc3)cc12 | 61% | 22.8% |  | 5.63% | -6.55% | 2.2% | 9.09% | 47.2% | 1.63% |  |  |  |  |  |  |  |  | 
7 | CN1C(=O)[C@@H](N2CCc3cn(Cc4ccccc4)nc3C2=O)COc2ccccc21 |  |  |  |  |  |  |  |  |  | 21.1% |  | 1.82% | 12.5% | 42.8% | 2.22% | 5.54% | -5.67% | 5.71%
8 | CN(C)c1ncnc(-c2ccc3nc(Nc4cc(CN5CCN(C(=O)CC(F)(F)F)CC5)ccn4)[nH]c3c2)c1Cl | 18% | -7.96% |  | -5.65% | -0.841% | 9.13% | 12.7% | 65% | 1.3% |  |  |  |  |  |  |  |  | 
9 | O=S(=O)(c1ccccc1)N(CC(F)(F)F)c1ccc(C(O)(C(F)(F)F)C(F)(F)F)cc1 | 64.2% | 11.1% |  | -6.61% | -5.89% | 22.5% | 0.186% | 50.9% | -2.07% |  |  |  |  |  |  |  |  | 
10 | Cc1c(NC(=O)COc2ccc(Cl)cc2C(=O)c2cc(F)cc(C(F)(F)F)c2)ccc(C(=O)O)c1F | 59.6% | 7.33% |  | 17.9% | -8.52% | 35.9% | 10.3% | 58.6% | 4.37% |  |  |  |  |  |  |  |  | 

The remaining lines, values ahead:

Row | inhibition ([1]; Compound Concentration 10.0 uM) | inhibition ([2]; Compound Concentration 10.0 uM) | inhibition ([3]; Compound Concentration 10.0 uM) | inhibition ([4]; Compound Concentration 10.0 uM) | inhibition ([5]; Compound Concentration 10.0 uM) | inhibition ([6]; Compound Concentration 10.0 uM) | inhibition ([7]; Compound Concentration 10.0 uM) | inhibition ([8]; Compound Concentration 10.0 uM) | inhibition ([9]; Compound Concentration 10.0 uM) | inhibition ([1]; Compound Concentration 1.0 uM) | inhibition ([3]; Compound Concentration 1.0 uM) | inhibition ([5]; Compound Concentration 1.0 uM) | inhibition ([7]; Compound Concentration 1.0 uM) | inhibition ([8]; Compound Concentration 1.0 uM) | inhibition ([9]; Compound Concentration 1.0 uM) | inhibition ([2]; Compound Concentration 1.0 uM) | inhibition ([4]; Compound Concentration 1.0 uM) | inhibition ([6]; Compound Concentration 1.0 uM) | SMILES
11 | 71.4% | 16.2% | -4.99% | 3.59% | -4.57% | 20.8% | 20.8% | 59.2% | 6.42% |  |  |  |  |  |  |  |  |  | CCO[C@H](COc1ccc(C(F)(F)F)cc1)CSc1ccc(OCC(=O)O)c(C)c1
12 | -3.96% | 11.4% | -4.62% | -9.73% | 2.18% | 6.06% | 17.2% | 97.5% | -6.1% |  |  |  |  |  |  |  |  |  | O=C(O)c1ccc2c(c1)nc(Nc1cccc(Cl)c1)c1ccncc12
13 | -7.86% | -2.6% |  | -10% | -0.61% | 9.82% | 21.4% | 49.6% | 2.17% |  |  |  |  |  |  |  |  |  | COc1cc(F)ccc1-c1ncnc(Nc2cccc(C[S@](C)(=N)=O)c2)n1
14 |  |  |  |  |  |  |  |  |  | 2.33% |  | -5.49% | 29.1% | 70.6% | 8.33% | -2.18% | -0.572% | 10.1% | CN(C)C(=O)/C(C#N)=C/c1ccc(-c2nc3cnc4[nH]ccc4c3n2C2CCCCC2)o1
15 | 51.2% | -1.09% |  | -8.14% | 0.685% | -0.262% | 15.9% | 97.5% | -6.06% |  |  |  |  |  |  |  |  |  | CCS(=O)(=O)c1cc2cc(C[C@](O)(CC(C)(C)c3ccc(F)cc3C(N)=O)C(F)(F)F)[nH]c2cn1
16 |  |  |  |  |  |  |  |  |  | 20.6% |  | 10.6% | 24.1% | 61.6% | 6.67% | 9.35% | -1.11% | 4.23% | C[C@@H]1CCN(C(=O)CC#N)C[C@@H]1N(C)c1ncnc2[nH]ccc12
17 | 26.4% | -7.4% |  | 2.66% | 8.46% | -9.1% | 16.3% | 47.8% | -0.61% |  |  |  |  |  |  |  |  |  | COc1cc(Nc2nc(C)cc(-c3cnn4nc(OC)ccc34)n2)cc(C(F)(F)F)c1
